Test results taken from ChEMBL document CHEMBL4477225, “Development of a cell viability assay to assess drug metabolite structure-toxicity relationships” (Bioorg Med Chem Lett, 2016).

How the values were obtained:
Settings in all cases: recombinant enzyme
Cytochrome P450 2D6 = Cytochrome P450 2D6 (Homo sapiens, UniProt P10635); experiment: (§1) Drug activation in human Hep3B cells assessed as human CYP2D6-mediated drug metabolism-induced cytotoxicity measured as decrease in cell viability at 300 uM pre-incubated with BSO for 18 hrs followed by incubation with compound for 3 hrs in presence of NADPH measured after 24 hrs in absence of compound, CYP3A4 and NADPH by cell titer-glo luminescence assay relative to BSO alone
Chain of Cytochrome P450 2D6 (P10635 whole entry): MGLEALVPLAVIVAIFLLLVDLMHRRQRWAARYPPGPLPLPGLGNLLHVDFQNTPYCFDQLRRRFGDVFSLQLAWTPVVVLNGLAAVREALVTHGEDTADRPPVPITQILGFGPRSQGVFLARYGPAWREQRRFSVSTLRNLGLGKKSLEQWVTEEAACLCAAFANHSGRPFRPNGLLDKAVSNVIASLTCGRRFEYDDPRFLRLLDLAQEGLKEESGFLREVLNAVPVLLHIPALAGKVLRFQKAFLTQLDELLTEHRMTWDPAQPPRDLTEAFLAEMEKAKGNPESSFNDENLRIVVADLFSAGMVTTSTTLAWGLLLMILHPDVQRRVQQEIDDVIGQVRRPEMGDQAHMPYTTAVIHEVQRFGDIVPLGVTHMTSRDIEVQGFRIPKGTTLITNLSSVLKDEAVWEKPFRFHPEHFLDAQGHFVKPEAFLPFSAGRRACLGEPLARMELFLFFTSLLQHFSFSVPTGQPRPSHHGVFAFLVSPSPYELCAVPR

Cytochrome P450 3A4 = Cytochrome P450 3A4 (Homo sapiens, UniProt P08684); experiment: as §1, with “CYP3A4-mediated” for “CYP2D6-mediated”
Chain of Cytochrome P450 3A4 (P08684 whole entry): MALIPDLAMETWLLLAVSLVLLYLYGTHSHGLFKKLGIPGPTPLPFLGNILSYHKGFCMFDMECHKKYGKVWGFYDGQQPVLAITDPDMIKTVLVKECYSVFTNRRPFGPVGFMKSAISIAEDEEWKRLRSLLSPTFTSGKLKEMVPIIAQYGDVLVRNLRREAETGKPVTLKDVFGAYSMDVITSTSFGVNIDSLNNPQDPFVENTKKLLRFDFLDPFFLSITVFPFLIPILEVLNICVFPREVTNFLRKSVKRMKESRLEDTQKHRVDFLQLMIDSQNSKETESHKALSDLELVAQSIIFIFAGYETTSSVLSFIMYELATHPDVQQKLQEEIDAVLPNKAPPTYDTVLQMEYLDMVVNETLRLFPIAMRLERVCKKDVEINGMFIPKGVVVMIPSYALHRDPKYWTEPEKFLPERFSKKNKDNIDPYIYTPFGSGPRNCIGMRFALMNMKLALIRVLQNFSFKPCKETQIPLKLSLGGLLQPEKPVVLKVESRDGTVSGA

Cytochrome P450 2C9 = Cytochrome P450 2C9 (Homo sapiens, UniProt P11712); experiment: as §1, with “CYP2C9-mediated” for “CYP2D6-mediated”
Chain of Cytochrome P450 2C9 (P11712 whole entry): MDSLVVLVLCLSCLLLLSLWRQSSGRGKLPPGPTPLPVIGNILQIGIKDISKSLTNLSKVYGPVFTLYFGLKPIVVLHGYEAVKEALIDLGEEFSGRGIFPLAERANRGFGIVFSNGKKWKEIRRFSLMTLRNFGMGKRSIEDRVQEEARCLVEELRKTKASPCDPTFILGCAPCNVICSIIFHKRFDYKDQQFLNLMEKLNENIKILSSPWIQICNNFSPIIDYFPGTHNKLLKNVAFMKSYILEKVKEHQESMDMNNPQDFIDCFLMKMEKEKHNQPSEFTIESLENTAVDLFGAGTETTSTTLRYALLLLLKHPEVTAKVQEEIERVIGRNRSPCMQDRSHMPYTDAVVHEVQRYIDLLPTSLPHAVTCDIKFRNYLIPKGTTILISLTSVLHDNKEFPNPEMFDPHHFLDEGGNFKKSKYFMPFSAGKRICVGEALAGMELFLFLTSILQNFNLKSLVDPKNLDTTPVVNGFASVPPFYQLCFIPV

Row | Structure (SMILES) | FC (Cytochrome P450 2D6) | FC (Cytochrome P450 3A4) | FC (Cytochrome P450 2C9)
1 | CCCCCCCCCCCCOS(=O)(=O)O.CC[C@H]1OC(=O)[C@H](C)[C@@H](O[C@H]2C[C@@](C)(OC)[C@@H](O)[C@H](C)O2)[C@H](C)[C@@H](O[C@@H]2O[C@H](C)C[C@H](N(C)C)[C@H]2O)[C@](C)(O)C[C@@H](C)C(=O)[C@H](C)[C@@H](O)[C@]1(C)O | 1 | 1 | 
2 | O=C(O)COc1ccc(C(=O)c2cccs2)c(Cl)c1Cl | 1 | 1 | 1
3 | Nc1nc(NC2CC2)c2ncn([C@H]3C=C[C@@H](CO)C3)c2n1 [ABACAVIR] | 1 | 1 | 1
4 | Nc1nc2c(ncn2COCCO)c(=O)[nH]1 [ACYCLOVIR] | 1 | 1 | 1
5 | CC(C)(C)NCC(O)c1ccc(O)c(CO)c1 (stereo unspecified) [ALBUTEROL] | 1 | 1 | 1
6 | Oc1ncnc2[nH]ncc12 [ALLOPURINOL] | 1 | 1 | 1
7 | COC(c1ccccc1)(c1ccccc1)[C@H](Oc1nc(C)cc(C)n1)C(=O)O [AMBRISENTAN] | 1 | 1 | 1
8 | O=C(O)CCCCCCNC1c2ccccc2CCc2ccccc21 [AMINEPTINE] | 1 | 1 | 1
9 | Nc1ccc(C(=O)O)c(O)c1 [AMINOSALICYLIC ACID] | 1 | 1 | 1
10 | CC1(C)S[C@@H]2[C@H](NC(=O)[C@H](N)c3ccc(O)cc3)C(=O)N2[C@H]1C(=O)O [AMOXICILLIN] | 1 | 1 | 1
11 | CC(=O)Oc1ccccc1C(=O)O [ASPIRIN] | 1 | 1 | 1
12 | CC(C(=O)O)c1ccc2oc(-c3ccc(Cl)cc3)nc2c1 (stereo unspecified) [BENOXAPROFEN] | 1 | 1 | 1
13 | C[N+](C)(C)CC(=O)O [BETAINE] | 1 | 1 | 1
14 | COc1ccccc1Oc1c(NS(=O)(=O)c2ccc(C(C)(C)C)cc2)nc(-c2ncccn2)nc1OCCO [BOSENTAN] | 1 | 1 | 1
15 | Nc1c(CC(=O)O)cccc1C(=O)c1ccc(Br)cc1 [BROMFENAC] | 1 | 1 | 1
16 | CC(NC(C)(C)C)C(=O)c1cccc(Cl)c1 (stereo unspecified) [BUPROPION] | 1 | 1 | 1

Row | Structure (SMILES) | FC (Cytochrome P450 2D6) | FC (Cytochrome P450 3A4) | FC (Cytochrome P450 2C9)
17 | CS(=O)(=O)OCCCCOS(C)(=O)=O [BUSULFAN] | 1 | 1 | 1
18 | C[C@H](CS)C(=O)N1CCC[C@H]1C(=O)O [CAPTOPRIL] | 1 | 1 | 1
19 | NC(=O)N1c2ccccc2C=Cc2ccccc21 [CARBAMAZEPINE] | 1 | 1 | 1
20 | C[C@@](Cc1ccc(O)c(O)c1)(NN)C(=O)O [CARBIDOPA ANHYDROUS] | 0.6 | 0.6 | 0.6
21 | CCCNC(=O)NS(=O)(=O)c1ccc(Cl)cc1 [CHLORPROPAMIDE] | 1 | 1 | 1
22 | O=C(O)c1cc(-c2ccccc2)nc2ccccc12 [CINCHOPHEN] | 1 | 1 | 1
23 | Clc1cccc(Cl)c1N=C1NCCN1 [CLONIDINE] | 1 | 1 | 1
24 | O=P1(N(CCCl)CCCl)NCCCO1 (stereo unspecified) [CYCLOPHOSPHAMIDE ANHYDROUS] | 1 | 1 | 1
25 | CN(C)/N=N/c1[nH]cnc1C(N)=O [DACARBAZINE] | 1 | 1 | 
26 | CC(=O)N(O)CCCCCNC(=O)CCC(=O)N(O)CCCCCNC(=O)CCC(=O)N(O)CCCCCN [DEFEROXAMINE] | 1 | 1 | 1
27 | O=c1[nH]cnc2c1ncn2[C@H]1CC[C@@H](CO)O1 [DIDANOSINE] | 1 | 1 | 1
28 | C[C@H]1O[C@@H](O[C@H]2[C@@H](O)C[C@H](O[C@H]3[C@@H](O)C[C@H](O[C@H]4CC[C@@]5(C)[C@H](CC[C@@H]6[C@@H]5C[C@@H](O)[C@]5(C)[C@@H](C7=CC(=O)OC7)CC[C@]65O)C4)O[C@@H]3C)O[C@@H]2C)C[C@H](O)[C@@H]1O [DIGOXIN] | 1 | 1 | 1
29 | COC(=O)CCc1ccc(OCC(O)CNC(C)C)cc1 (stereo unspecified) [ESMOLOL] | 1 | 1 | 1
30 | CC[C@@H](CO)NCCN[C@@H](CC)CO [ETHAMBUTOL] | 1 | 1 | 1
31 | CCc1cccc2c3c([nH]c12)C(CC)(CC(=O)O)OCC3 (stereo unspecified) [ETODOLAC] | 1 | 1 | 1
